The test system of series [1] is RIF tumors. The experiment in a line: Tumor uptake by in vivo reflectance spectroscopy. The arrangement: species or system C3H mice. Here is the method:
The tumor uptake of conjugate 5 was determined by in vivo reflectance spectroscopy. For these experiments, C3H mice bearing RIF tumors were injected with 5.0 μmole/kg of conjugate 5 and the in vivo absorption spectra were taken at various time intervals.

Series [2] deals with RIF tumors. The experiment in a line: Photosensitizing efficiency (photodynamic therapy of implanted tumors). Type of series: in vivo, C3H mice. The note with it: light 135 J/cm^2 at 665 nm, 24 hours post injection, FIG. 7. As to the method:
To measure photosensitizing efficiency, RIF tumors were implanted subcutaneously into axilla of 5-7 week old female C3H mice. When tumors grew to about […] in size, conjugate 5 was injected at variable doses (0.5, 1.0, 1.5, and 2.5 μmole/kg) The tumors were treated with light at an energy of 135 J/cm^2 at a wavelength of 665 nm (in vivo absorption band for HPPH) at 24 hours post injection and the mice were observed daily. From the results summarized in FIG. 7, it can be seen that conjugate 5 produced 100% tumor cure at a dose of 2.5 μmole/kg (the tumor imaging dose).

For series [3], the system named is RIF tumor cells. The experiment in a line: Site of intracellular localization compared with a mitochondrial probe. Type of series: cell-based. The conditions noted are these: 24 hours incubation; compared with MITO-TRACKER green (400 nM); FIG. 8. From the text:
In general, porphyrin based compounds have shown diverse patterns of localization at least somewhat dependent upon structure, lipophilicity and charge.

Consider `CCCCCCOC(C)c1c(C)c2cc3nc(c4c5[nH]c(cc6nc(cc1[nH]2)C(C)=C6CC)c(C)c5C(=O)C4)C(CCC(=O)Nc1ccc(SC2=C(C=CC4=[N+](CCCCS(=O)(=O)[O-])c5ccc6ccccc6c5C4(C)C)CCCC2=CC=C2N(CCCCS(=O)(=O)[O-])c4ccc5ccccc5c4C2(C)C)cc1)C3C.[Na+]` (stereo not shown) [conjugate 5], for which the “uptake in tumor relative to skin” value in series [1] (5.0 μmole/kg injected, 24 hours post injection, FIG. 3) is recorded as “more significant uptake in tumor than skin”. Further, the tumor cure in series [2] (2.5 μmole/kg) worked out at 100%. In addition, the “photosensitizing efficacy at lower doses” value in series [2] (doses below 2.5 μmole/kg (0.5, 1.0, 1.5)) is listed as “limited photosensitizing efficacy”. For the same molecule, the “site of localization in cells” value in series [3] is “localizes in mitochondria”.
`CC1(C)C(=CC=C2CCCC(C=CC3=[N+](CCCCS(=O)(=O)[O-])c4ccc5ccccc5c4C3(C)C)=C2Cl)N(CCCCS(=O)(=O)[O-])c2ccc3ccccc3c21.[Na+]` [indocyanine green analog (1), indocyanine green 820 nm analog CAS172616-80-7]: the “uptake in skin relative to tumor, dye alone” value in series [1] (5.0 μmole/kg, dye alone, C3H mouse bearing tumor) is given as “higher uptake in skin than in tumor”. Besides, the “tumor uptake compared with HPPH-ICG conjugate 5” value in series [1] (5.0 μmole/kg, dye alone, FIG. 5) is listed as “significantly lower tumor uptake”. In addition, the “time post injection at which cleared from both tumor and skin” value in series [1] (5.0 μmole/kg, dye alone, found to clear rapidly) fell in the range of 4 to 5 h.
